# In patent US7288273B1, “Gallotannins and ellagitannins as regulators of cytokine release” (The Penn State Research Foundation, priority 2000, dated 2007):
# Experiments:
# [1] = test system: TNF-α secretion from h-PBMC's; experiment: TNF-α release from h-PBMC's, ELISA; assay type: cell-based, human; conditions: 24 hours, ± SD
# Method: Authentic samples of agrimoniin and coriariin A were supplied by Professor Yoshida (Okayama University, Japan). Dimeric gallotannin (analog of coriariin A) and β-D-PGG were synthesized as described. LPS (E. coli 055:B5 phenol extract, MW range 50-100 KD). Ficoll-Histopaque (ρ=1.077 g/mL), Fetal Bovine Serum, sterile, hybridoma tested (FCS), gentamicin 10 mg/mL. L-glutamine, 200 mM. Dextran B-512 Leuconostoc Av M.W. 580000, and Trypan Blue stain were purchased from Sigma. Hanks Buffer Saline Solution 1×, with phenol red, mediatech (HBSS) and RPMI 1640 1×, mediatech were purchased from Fisher Scientific, Human IL-1β and TNF-α Enzyme Linked ImmunoSorbent Assay (ELISA) kits were purchased from R and D Systems, Minneapolis, Minn. Fresh heparinized blood was obtained from health human subjects (ages 20-34).
# Dose-Response Data: General Procedure. H-PBMC's were isolated by reported procedures (10. 18). The cells counted and the viability was determined by Trypan Blue exclusion (typically, viability exceeded 95%). The concentration of the cells in the 0.5 mL wells was adjusted to 1×10^6 cells/well by diluting with the required amount of RPMI.
# The appropriate amount of a tannin (or LPS) stock solution in HBSS was added to each well to furnish the concentration values reported in the Figures. […] The culture plates were incubated in a 5% CO2, 37° C. humidified incubator for the indicated time. At the end of the time interval, 450 μL of the culture supernatant from each well was harvested, after centrifugation at 400 g, 25° C., 10 min. with brake, and stored at −78° C. pending ELISA analysis for the cytokine(s). The ELISA assays were conducted per the manufacturer's instructions using standard calibration curves to calculate cytokine concentration from observed absorbance readings. The cytokine values reported are averages of three runs±SE.
# The dimeric antitumor ellagitannins coriariin A and agrimoniin, the monomeric gallotannin β-D-pentagalloylglucose (β-D-PGG) and the dimeric gallotannin of this invention were all examined in this study. The dimeric gallotannin is an analog of coriariin A and is identical to the parent ellagitannin except that the galloyl rings at O(4) and O(6) are not joined in a hexahydroxydiphenoyl (HHDP) linkage. h-PBMC's were incubated with the compound under investigation for the indicated length of time and the amounts of both IL-1β and, independently, TNF-α, present in the culture supernatants was determined using commercially available ELISA kits. In each case, LPS was used as a positive control while untreated cells were reserved as negative controls.
# In the first study, the induction of TNF-α secretion from h-PBMC's in the presence of each compound 17c-21c was measured. The h-PBMC's were incubated with each compound for 24 hours. The TNF-α levels in the cell culture supernatant were assayed by Enzyme Linked ImmunoSorbant Assay (ELISA). The data point for each assay represent the mean of triplicate measurements. […] (See FIG. 11).
# [2] = test system: LPS induced TNF-α secretion from h-PBMC's; experiment: Inhibition of LPS induced TNF-α secretion from h-PBMC's; assay type: cell-based, human; conditions: for TNF-α secreted in the presence of LPS and 17c-20c: compound 10 μg/mL added after 45 minutes, h-PBMC's 3rd subject; for TNF-α secreted in the presence of LPS and 17c-20c / TNF-α secreted in the presence of LPS and 18c-20c: ± SD; for TNF-α secreted in the presence of LPS and 18c-20c: 4th subject
# Method: In the second study, the ability of compounds 17c-20c to inhibit LPS induced TNF-α production in h-PBMC's was investigated using four assays. The first experiment was a kinetics run in which the h-PBMC's were initially incubated with a fixed concentration of LPS (5 μg/mL) for 45 minutes. This incubation period was followed by addition of a fixed concentration (10 μg/mL) of compounds 17c-20c. The cells were harvested at varying intervals of time. […] The optimal time was determined by comparing the amount of TNF-α secreted by LPS alone to the amount of TNF-α secreted by LPS and substrate at each time point.
# The second assay determined the minimum amount of substrate required for inhibition. LPS (10 μg/mL) was incubated with h-PBMC's for 45 minutes followed by addition of 17c-20c at varying concentrations. The cell culture supernatant was harvested after 8 hours. The inherent variability in using cells from different subjects, or in the day of assay, made it difficult to compare overall effectiveness of inhibitors. Therefore, to more easily identify the concentration at which maximum inhibition occurs for a given compound, the TNF-α secretion was normalized by calculating a percent of maximum secretion value (based on LPS alone) (FIG. 13). […] The optimal concentration for inhibition varied between substrates, but the general dose response trend was the same. Overall, the maximum inhibition was 45% for 18c and 20c, and 25% for 19c.
# The third assay investigated the ability of 17c, 18c, and 20c to inhibit LPS induced TNF-α secretion using a smaller dosage of LPS (5 μg/mL) (FIG. 14). Again, the response was dose dependent. The maximum inhibition was 45% for 17c and 20c, and 35% for 18c.
# In the fourth assay the varying concentrations of substrates 17c-20c and LPS were added at the same time to determine the effect of addition sequence on the inhibition of TNF-α secretion (FIG. 15). The addition time seemed to make a difference in the overall dose response trend. However, maximum inhibition was the same as when the compounds were added 45 minutes after LPS addition (about 40% for each compound).
# Finally, in the last study, analogs 19c and 20c were again tested for inhibition LPS induced TNF-α secretion (FIG. 17). In this assay a smaller dose of LPS was used to determine if inhibition was greater when much lower doses of LPS were present. The substrates were added 45 minutes after LPS addition and the cells were harvested after 8 hours. It doesn't appear as though the substrates are better inhibitors when smaller amounts of LPS are used, again perhaps reflecting receptor saturation with LPS at this dosage.
structure (smiles),measurement,setting,value
"O=C(OC[C@H]1O[C@@H](OC(=O)c2cccc(C(=O)O[C@@H]3O[C@H](COC(=O)c4cc(O)c(O)c(O)c4)[C@@H](OC(=O)c4cc(O)c(O)c(O)c4)[C@H](OC(=O)c4cc(O)c(O)c(O)c4)[C@H]3OC(=O)c3cc(O)c(O)c(O)c3)c2)[C@H](OC(=O)c2cc(O)c(O)c(O)c2)[C@@H](OC(=O)c2cc(O)c(O)c(O)c2)[C@@H]1OC(=O)c1cc(O)c(O)c(O)c1)c1cc(O)c(O)c(O)c1 [Compound 18c, 1,1′-O-2,2′,3,3′,4,4′,6,6′-Tetrakis(3,4,5-trihydroxybenzoyl)-β,β′-D-glucopyranosylisophthalate]",TNF-α secreted in the presence of 17c-21c,[1]; compound 0.6 μM,8.9 ± 5.6 pg/mL
same,TNF-α secreted in the presence of 17c-21c,[1]; compound 2.9 μM,11.9 ± 5.2 pg/mL
same,TNF-α secreted in the presence of 17c-21c,[1]; compound 5.9 μM,6.7 ± 2.9 pg/mL
same,TNF-α secreted in the presence of 17c-21c,[1]; compound 11.8 μM,9.5 ± 7.2 pg/mL
same,TNF-α secreted in the presence of 17c-21c,[1]; compound 17.6 μM,11.4 ± 9.2 pg/mL
same,TNF-α secreted in the presence of 17c-21c,[1]; compound 23.5 μM,3.3 ± 2.6 pg/mL
same,TNF-α secreted in the presence of 17c-21c,[1]; compound 29.4 μM,8.5 ± 3.5 pg/mL
same,TNF-α secreted in the presence of LPS and 17c-20c,"[2]; LPS 5 μg/mL, time 1 h",594.6 ± 93.2 pg/mL
same,TNF-α secreted in the presence of LPS and 17c-20c,"[2]; LPS 5 μg/mL, time 4 h",1523.3 ± 472.8 pg/mL
same,TNF-α secreted in the presence of LPS and 17c-20c,"[2]; LPS 5 μg/mL, time 8 h",2829.3 ± 52.6 pg/mL
same,TNF-α secreted in the presence of LPS and 17c-20c,"[2]; LPS 5 μg/mL, time 12 h",2448.1 ± 43.6 pg/mL
same,TNF-α secreted in the presence of LPS and 17c-20c,"[2]; LPS 5 μg/mL, time 16 h",3956.3 ± 524.5 pg/mL
same,TNF-α secreted in the presence of LPS and 17c-20c,"[2]; LPS 5 μg/mL, time 24 h",2002.1 ± 95.1 pg/mL
same,maximum inhibition of LPS induced TNF-α secretion,"[2]; LPS 5 μg/mL, 3rd subject",35%
same,maximum inhibition of LPS induced TNF-α secretion,"[2]; LPS 10 μg/mL, substrate added after 45 minutes, 8 hours",45%
same,TNF-α secreted in the presence of LPS and 18c-20c,"[2]; compound 0.6 μM added 45 minutes after LPS 10 μg/mL, 8 hours",69.0 ± 4.9 % max. response
same,TNF-α secreted in the presence of LPS and 18c-20c,"[2]; compound 2.9 μM added 45 minutes after LPS 10 μg/mL, 8 hours",71.9 ± 15.2 % max. response
same,TNF-α secreted in the presence of LPS and 18c-20c,"[2]; compound 5.9 μM added 45 minutes after LPS 10 μg/mL, 8 hours",59.5 ± 9.5 % max. response
same,TNF-α secreted in the presence of LPS and 18c-20c,"[2]; compound 11.7 μM added 45 minutes after LPS 10 μg/mL, 8 hours",54.4 ± 15.4 % max. response
same,TNF-α secreted in the presence of LPS and 18c-20c,"[2]; compound 23.5 μM added 45 minutes after LPS 10 μg/mL, 8 hours",60.6 ± 9.9 % max. response
